Values of other authors, collected in publication PMC12776573, “Mechanism of Self-Assembly of the Gonadropin Releasing Hormone Antagonist Teverelix into Amyloid Fibrils” (Molecular Pharmaceutics, 2025).
Square brackets hold non-standard residues; d marks the D form. Peptide text beside a SMILES is read from it. dPhe(4-Cl) = N[C@H](Cc1ccc(Cl)cc1)C(=O)O; d2Nal = N[C@H](Cc1ccc2ccccc2c1)C(=O)O; d(hCit) = NC(=O)NCCCC[C@@H](N)C(=O)O; Lys(iPr) = CC(C)NCCCC[C@H](N)C(=O)O; d3Pal = N[C@H](Cc1cccnc1)C(=O)O

Details: side chain of Tv thought to be deprotonated on fibril formation; not measured here, no reference given
Description: Calculations establish that a single deprotonation event occurs (see the footnote to Table S1). Considering the pK a of all possible protonation sites in Tv, we think that the pyridine side c ...

CC(=O)N[C@H](Cc1ccc2ccccc2c1)C(=O)N[C@H](Cc1ccc(Cl)cc1)C(=O)N[C@H](Cc1cccnc1)C(=O)N[C@@H](CO)C(=O)N[C@@H](Cc1ccc(O)cc1)C(=O)N[C@H](CCCCNC(N)=O)C(=O)N[C@@H](CC(C)C)C(=O)N[C@@H](CCCCNC(C)C)C(=O)N1CCC[C@H]1C(=O)N[C@H](C)C(N)=O [Tv, Ac-D-Nal(2)-D-Phe(4Cl)-D-Pal(3)-Ser-Tyr-D-Hcit-Leu-Lys(iPr)-Pro-D-Ala-NH2] (Ac-[d2Nal][dPhe(4-Cl)][d3Pal]SY[d(hCit)]L[Lys(iPr)]P[dA]-NH2)
pKa of the pyridine side chain: 5.22
